# Key:
# [1] = tested on: patients with Dravet syndrome; details: cited from earlier work
# [2] = tested on: patients with Dravet syndrome; assay: Study 1 (ZX008-1501/1502), Phase 3 double-blind placebo-controlled: efficacy on seizures; type: in vivo, human; details: 0.8 mg/kg/day; end of the T+M Period
# Method: The first 119 subjects to be randomized in both identical studies combined were analyzed and reported as Study 1 (FIG. 1), covered by a Statistical Analysis Plan (SAP).
# Primary and key secondary endpoints in the Study 1 SAP were pre-determined. All patients were treated twice per day over a period of 14 weeks using an oral syringe to administer the formulation. The treatment period included a two-week titration period and a 12-week maintenance period.
# Patients were titrated to their target dose over two weeks, and then remained at that fixed dose for 12 weeks. The mean baseline convulsive seizure frequency across the study groups was approximately 40 seizures per month. 110 (92%) patients completed the study (85% 0.8 mg/kg/day; 100% 0.2 mg/kg/day; 93% placebo).
# The proportion of patients who achieved ≥75% seizure reductions, a secondary (non-key) efficacy measure, is also presented.
# The mean number of convulsive seizure free days, defined as a day for which diary data are available and no convulsive seizures have been reported, was determined for each treatment group during the Baseline and T+M Periods. […]
smiles,measurement,setting,value
"CCNC(C)Cc1cccc(C(F)(F)F)c1 (racemic) [Fenfluramine, (RS)—N-ethyl-1-[3-(trifluoromethyl)phenyl]propan-2-amine]",>50% Reduction in Seizures (responders),"[1]; Fenfluramine and Valproate, average 0.34 mg/kg/day for between 1 and 22 years",75%
same,heart valve defects monitored by echocardiography,[1]; long-term treatment,No clinically relevant defects were identified
same,types of seizures reduced,[1]; long-term treatment,effectively reduced the incidence of all types of seizures
same,reduction from Baseline in non-convulsive seizure frequency (all types),[2],59.1%
